# Where a name gives a salt, the structure may show the parent alone. Read-outs that look alike come from different tables or passages of the source.
# Assays:
# [1] = system: NCI-H292 lung cancer cells; assay: FDA drug screening, complete media vs cholesterol-free media with simvastatin (TABLE 2); assay type: cell-based, human
# [2] = system: NCI-H292 lung cancer cells; assay: FDA drug screening, complete media vs cholesterol-free media without statin (TABLE 1); assay type: cell-based, human
# [3] = NCI-H292 cells, FDA drug library screen, cholesterol-free media with simvastatin 0.04 μM
# [4] = NCI-H292 cells, FDA drug library screen, complete media
# [5] = complete media vs cholesterol-free media + simvastatin (0.04 μM), >0 enhanced anti-cancer activity, about 0 neutral, <0 antagonist
# [6] = Complete minus Cholesterol-free, greater than 0 enhanced anti-cancer activity, about 0 neutral, below 0 antagonists
# [7] = NCI-H292 cells in cholesterol-free media without statin
# [8] = NCI-H292 cells in complete media
# [9] = Complete minus Cholesterol-free, >0 enhanced anti-cancer activity, about 0 neutral, <0 antagonist
# [10] = NCI-H292 cells, cholesterol-free media without statin
# [11] = NCI-H292 cells, cholesterol-free media with simvastatin 0.04 μM, cell growth value in FDA drug screen
# [12] = NCI-H292 cells, complete media, cell growth value in FDA drug screen
# [13] = complete media minus cholesterol-free media + simvastatin, >0 enhanced anti-cancer activity, about 0 neutral, <0 antagonist
# [14] = complete vs cholesterol-free media, greater than 0 enhanced anti-cancer activity, about 0 neutral, below 0 antagonists
# [15] = NCI-H292 cells, drug in cholesterol-free media with simvastatin 0.04 μM
# [16] = NCI-H292 cells, cholesterol-free media without statin, FDA drug library screen
# [17] = NCI-H292 cells, complete media, FDA drug library screen
# [18] = Complete minus Cholesterol-free, greater than 0 enhanced anti-cancer activity, about 0 neutral, below 0 antagonist
# [19] = NCI-H292 cells, FDA drug library screen, cholesterol-free media without statin
# [20] = NCI-H292 cells, drug in complete media
molecule,measurement,setting,value
CN(C/C=C/C#CC(C)(C)C)Cc1cccc2ccccc12 [Terbinafine hydrochloride],Cholesterol-free media + simvastatin (0.04 μM),[1]; [3],1.241
same,Complete Media,[1]; [4],1.124
same,Difference,[1]; [5],−0.12
same,Difference,[2]; [6],−0.57
same,Cholesterol-free,[2]; [7],1.793
same,Complete,[2]; [8],1.222
Clc1ccc(C(OCCN2CCCCC2)c2ccccc2)cc1 (centres unmarked) [Cloperastine (hydrochloride)],Cholesterol-free media + simvastatin (0.04 μM),[1]; [3],1.648
same,Complete Media,[1]; [4],1.547
same,Difference,[1]; [5],−0.10
same,Difference,[2]; [9],−0.28
same,Cholesterol-free,[2]; [10],1.087
same,Complete,"[2]; NCI-H292 cells, complete media",0.8022
COc1ccc(C(C)=O)c(O)c1 [Paeonol],Cholesterol-free media + simvastatin (0.04 μM),[1]; [11],1.081
same,Complete Media,[1]; [12],1.107
same,Difference,[1]; [13],0.03
same,Difference,[2]; [9],−0.29
same,Cholesterol-free,[2]; [10],1.074
same,Complete,"[2]; NCI-H292 cells, complete media",0.7804
O=C(O)C(c1ccccc1)(c1ccccc1)c1ccccc1.OCc1cc([C@@H](O)CNCCCCCCOCCOCc2c(Cl)cccc2Cl)ccc1O [Vilanterol (trifenatate)],Cholesterol-free media + simvastatin (0.04 μM),"[1]; NCI-H292 cells, cholesterol-free media with simvastatin 0.04 μM, FDA drug library screen (TABLE 2)",0.9213
same,Complete Media,"[1]; NCI-H292 cells, complete media, FDA drug library screen (TABLE 2)",0.9369
same,Difference,"[1]; complete media minus cholesterol-free media + simvastatin (0.04 μM), >0 enhanced anti-cancer activity, about 0 neutral, <0 antagonist",0.02
same,Cholesterol-free,[2]; [10],1.453
same,Complete,"[2]; NCI-H292 cells, complete media",1.047
same,Difference,[2]; [14],−0.41
COC(=O)C1=C(C)NC(C)=C(C(=O)OC)C1c1ccccc1[N+](=O)[O-] [Nifedipine],Cholesterol-free media + simvastatin (0.04 μM),[1]; [3],1.819
same,Complete Media,[1]; [4],1.696
same,Difference,[1]; [5],−0.12
same,Difference,[2]; [6],−0.53
same,Cholesterol-free,[2]; [7],1.45
same,Complete,[2]; [8],0.9229
CC1(C)[C@H](C(=O)O)N2C(=O)C[C@H]2S1(=O)=O [Sulbactam],Cholesterol-free media + simvastatin (0.04 μM),[1],1.06
same,Complete Media,[1],1.241
same,Difference,[1],0.18
same,Cholesterol-free,[2],1.094
same,Complete,[2],1.056
same,Difference,[2],−0.04
CC(C)C(=O)OCC(=O)[C@@]12O[C@H](C3CCCCC3)O[C@@H]1C[C@H]1[C@@H]3CCC4=CC(=O)C=C[C@]4(C)[C@H]3[C@@H](O)C[C@@]12C [Ciclesonide],Cholesterol-free media + simvastatin (0.04 μM),[1]; [3],0.6652
same,Complete Media,[1]; [4],0.5742
same,Difference,[1]; [5],−0.09
same,Difference,[2]; [9],−0.28
same,Cholesterol-free,[2]; [10],0.7014
same,Complete,"[2]; NCI-H292 cells, complete media",0.4234
CC1=C(C(=O)O)N2C(=O)[C@@H](NC(=O)[C@H](N)c3ccccc3)[C@H]2SC1 [Cephalexin],Cholesterol-free media + simvastatin (0.04 μM),"[1]; NCI-H292 cells, FDA library drug in cholesterol-free media with simvastatin 0.04 μM",1.341
same,Complete Media,"[1]; NCI-H292 cells, FDA library drug in complete media",0.9798
same,Difference,[1]; [5],−0.36
same,Cholesterol-free,[2]; [10],1.173
same,Complete,"[2]; NCI-H292 cells, complete media",0.8408
same,Difference,[2]; [14],−0.33
CC(C)(O/N=C(\C(=O)N[C@@H]1C(=O)N2C(C(=O)[O-])=C(C[n+]3ccccc3)CS[C@H]12)c1csc(N)n1)C(=O)O [Ceftazidime],Cholesterol-free media + simvastatin (0.04 μM),[1]; [15],1.391
same,Difference,[1]; [5],−0.24
same,Difference,[2]; [9],−0.05
same,Cholesterol-free,[2]; [16],0.9478
same,Complete,[2]; [17],0.8943
Ribociclib succinate hydrate,Cholesterol-free media + simvastatin (0.04 μM),[1]; [11],0.4954
same,Complete Media,[1]; [12],0.6321
same,Difference,[1]; [13],0.14
same,Difference,[2]; [9],−0.21
same,Cholesterol-free,[2]; [10],0.9345
same,Complete,"[2]; NCI-H292 cells, complete media",0.7226
CCC(Cc1c(I)cc(I)c(N)c1I)C(=O)O (centres unmarked) [Iopanoic acid],Cholesterol-free media + simvastatin (0.04 μM),[1]; [3],1.115
same,Complete Media,[1]; [4],1.353
same,Difference,[1]; [13],0.24
same,Difference,[2]; [18],−0.10
same,Cholesterol-free,[2]; [19],1.02
same,Complete,[2]; [4],0.9191
C[C@H]1COc2c(N3CCN(C)CC3)c(F)cc3c(=O)c(C(=O)O)cn1c23 [Levofloxacin],Cholesterol-free media + simvastatin (0.04 μM),[1]; [15],1.136
same,Complete Media,[1]; [20],0.944
same,Difference,[1]; [5],−0.19
same,Difference,[2]; [9],−0.23
same,Cholesterol-free,[2]; [10],1.162
same,Complete,"[2]; NCI-H292 cells, complete media",0.933
N[C@H](C(=O)O)[C@H](O)c1ccc(O)c(O)c1 [Droxidopa],Cholesterol-free media + simvastatin (0.04 μM),[1]; [15],1.236
same,Complete Media,[1]; [20],1.023
same,Difference,[1]; [5],−0.21
same,Cholesterol-free,[2]; [16],0.9972
same,Complete,[2]; [17],1.24
same,Difference,"[2]; complete vs cholesterol-free media, >0 enhanced anti-cancer activity, about 0 neutral, <0 antagonist",0.24
CC(C)(C)c1cc(C(C)(C)C)c(NC(=O)c2c[nH]c3ccccc3c2=O)cc1O [Ivacaftor],Cholesterol-free media + simvastatin (0.04 μM),[1]; [3],1.021
same,Complete Media,[1]; [4],0.931
same,Difference,[1]; [5],−0.09
same,Difference,[2]; [18],−0.10
same,Cholesterol-free,[2]; [19],0.9826
same,Complete,[2]; [4],0.878

# — patent US20250144067A1, “PERSONALIZED STARVATION THERAPY FOR CANCER” (Faeth Therapeutics, Inc., priority 2021, published 2025)
